Source: US5432192A, “Tricyclic compounds and method for treating allergic diseases” (Hokuriku Seiyaku Co., Ltd., priority 1991, dated 1995)

Legend:
[1] = tested on: PCA reaction in passively sensitized male Wistar rats; test: Anti-allergic effect (Inhibitory effect on PCA reaction); format: in vivo, rat (male Wistar); conditions: Rattus norvegicus, po, 1 h, 1 mg/kg orally, antigen challenge after one hour, read-out: Inhibition rate (%) of PCA reaction
Procedure: 0.1 ml of anti-dinitrophenylated ascaris extract (DNP-As) rat IgE serum was injected intracutaneously to the back of male Wistar rats (6 weeks of age). After 48 hours, a solution of 1% Evans blue in physiological saline containing 1 mg of an antigen (DNP-As) was administered from caudal vein. After 30 minutes, the animals were exsanguinated and dyes in blue spots were extracted with 1N KOH, and then the amounts of the dyes were measured by absorbance at 620 nm. After the passively sensitized rats described above were fasted for 16 to 18 hours, 1 mg/kg of each test compound was administered orally to the rats, and then the rats were challenged with antigen after one hour. The amounts of dyes in the test animals were compared with those of the control to obtain the inhibition rate (%) of PCA reaction.

[2] = target: T1, Acetylcholine dose-response in isolated ileum from male Hartley guinea-pigs (Cavia porcellus, UniProt H0W1Z3); test: Anti-acetylcholinergic effect, isolated guinea-pig ileum (KB by Furchgott method); design: species or system guinea-pig (male Hartley); conditions: dissociation constant KB (M) of antagonist vs acetylcholine; test drug applied 30 minutes before; 28° C.; read-out: -Log KB (anti-acetylcholinergic effect) (converted)
T1 construct: The ileum was isolated from male Hartley guinea-pigs; from tissue; host or cells: isolated ileum of male Hartley guinea-pigs
Procedure: (§1) The ileum was isolated from male Hartley guinea-pigs (5 to 8 weeks of age). The preparation was suspended in a bath containing Locke-Ringer nutritional solution (NaCl: 154 mM, KCl: 5.6 mM, CaCl2.H2 O: 2.2 mM, MgCl2. 6H2 O: 2.1 mM, NaHCO3 : 5.9 mM, glucose: 2.8 mM) bubbled with 95% O2 +5% CO2 mixed gas at 28° C., and then 0.5 g weight was loaded and tention through isotonic transducer was recorded using a recorder. Acetylcholine was cumulatively applied 3 times at intervals of 40 minutes, and the dose-response curve of the third experiment, for which a test drug was applied 30 minutes before the experiment, was compared with the result of the second experiment as a reference. Dissociation constants KB (M) of antagonists were calculated according to the method of Furchgott. From the results shown in Table 3, it is apparent that the compounds of the present invention have almost no anti-acetylcholinergic activities.

[3] = target: T2, Histamine dose-response in isolated ileum from male Hartley guinea-pigs (Cavia porcellus, UniProt P31389); test: Anti-histaminic effect, isolated guinea-pig ileum (KB by Furchgott method); design: species or system guinea-pig (male Hartley); conditions: dissociation constant KB (M) of antagonist vs histamine; test drug applied 30 minutes before; 28° C.; read-out: -Log KB (anti-histaminic effect) (converted)
T2 construct: The ileum was isolated from male Hartley guinea-pigs; from tissue; host or cells: isolated ileum of male Hartley guinea-pigs
Procedure: as §1, with “CaCl2 .2H2” for “CaCl2.H2”, “MgCl2.6H2” for “MgCl2. 6H2”, “Histamine” for “Acetylcholine”, “1,” for “3,”, “excellent anti-histaminic” for “almost no anti-acetylcholinergic”

[4] = known adverse reactions, background art; cited from earlier work

T1 sequence (H0W1Z3 1-590): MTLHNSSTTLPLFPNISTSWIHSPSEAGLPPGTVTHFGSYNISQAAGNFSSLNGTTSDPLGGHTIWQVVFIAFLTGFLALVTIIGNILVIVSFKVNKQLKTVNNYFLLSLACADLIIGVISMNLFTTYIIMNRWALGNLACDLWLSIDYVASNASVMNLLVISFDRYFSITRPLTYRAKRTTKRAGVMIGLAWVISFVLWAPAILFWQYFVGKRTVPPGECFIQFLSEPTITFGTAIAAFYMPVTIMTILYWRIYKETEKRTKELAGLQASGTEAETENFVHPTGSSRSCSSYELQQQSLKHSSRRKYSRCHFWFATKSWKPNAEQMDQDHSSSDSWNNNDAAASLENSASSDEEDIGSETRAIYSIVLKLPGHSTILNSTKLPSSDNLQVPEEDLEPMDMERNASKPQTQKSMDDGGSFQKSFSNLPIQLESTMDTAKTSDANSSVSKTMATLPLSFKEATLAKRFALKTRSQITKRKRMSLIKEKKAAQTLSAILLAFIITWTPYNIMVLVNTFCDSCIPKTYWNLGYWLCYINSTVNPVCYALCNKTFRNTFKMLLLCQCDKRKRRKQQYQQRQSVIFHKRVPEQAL
T2 sequence (P31389 whole entry): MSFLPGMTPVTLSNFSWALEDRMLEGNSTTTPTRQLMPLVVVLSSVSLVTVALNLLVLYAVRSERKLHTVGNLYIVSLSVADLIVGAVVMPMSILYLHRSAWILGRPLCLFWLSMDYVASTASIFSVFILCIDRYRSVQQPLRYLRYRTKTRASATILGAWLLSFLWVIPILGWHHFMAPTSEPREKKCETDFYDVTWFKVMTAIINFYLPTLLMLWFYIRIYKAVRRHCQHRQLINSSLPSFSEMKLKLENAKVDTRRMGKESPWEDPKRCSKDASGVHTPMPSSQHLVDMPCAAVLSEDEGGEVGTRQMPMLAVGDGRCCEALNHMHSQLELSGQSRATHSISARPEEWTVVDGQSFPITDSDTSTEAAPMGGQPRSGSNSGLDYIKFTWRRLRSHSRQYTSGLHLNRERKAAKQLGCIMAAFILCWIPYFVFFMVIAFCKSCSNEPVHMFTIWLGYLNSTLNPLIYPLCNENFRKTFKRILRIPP

| SMILES | inhibition at 1 mg/kg [1] [%] | Kb [2] [M] | Kb [3] [M] | adverse reactions [4] |
| --- | --- | --- | --- | --- |
| CN(CCC=C1c2ccccc2C=Cc2ccccc21)CCC(=O)O [Example 14, 3-[N-[3-(5H-Dibenzo[a,d]cyclohepten-5-ylidene)propyl]-N-methylamino]propionic Acid] | 72 | 1.51e-05 | 6.92e-09 |  |
| CN(CCC=C1c2ccccc2C=Cc2ccccc21)CCCC(=O)O [Example 15, 4-[N-[3-(5H-Dibenzo[a,d]cyclohepten-5-ylidene)propyl]-N-methylamino]butyricAcid] |  | 2.57e-06 | 4.27e-09 |  |
| CN(CCC=C1c2ccccc2C=Cc2ccccc21)CC(=O)O [Example 16, [N-[3-(5H-Dibenzo[a,d]cyclohepten-5-ylidene)propyl]-N-methylamino]acetic Acid] |  | 1.26e-05 | 3.16e-08 |  |
| CN(CCC=C1c2ccccc2C=Cc2ccccc21)CCCCC(=O)O [Example 17, 5-[N-[3-(5H-Dibenzo[a,d]cyclohepten-5-ylidene)propyl]-N-methylamino]valericAcid] | 72 | 9.12e-07 | 6.17e-09 |  |
| CN(CCC=C1c2ccccc2C=Cc2ccccc21)CCCCCC(=O)O [Example 18, 6-[N-[3-(5H-Dibenzo[a,d]cyclohepten-5-ylidene)propyl]-N-methylamino]hexanoic Acid] | 50 | 5.5e-07 | 1.2e-08 |  |
| CN(CCC=C1c2ccccc2COc2ccccc21)CC(=O)O [Example 19, [N-[3-(Dibenz[b,e]oxepin-11(6H)-ylidene)propyl]-N-methylamino]acetic Acid] |  | 4.9e-05 | 1.55e-08 |  |
| CN(CCC=C1c2ccccc2COc2ccccc21)CCC(=O)O [Example 20, 3-[N-[3-(Dibenz[b,e]oxepin-11(6H)-ylidene)propyl]-N-methylamino]propionic Acid] | 69 | 7.08e-06 | 3.09e-09 |  |
| CN(CCC=C1c2ccccc2COc2ccccc21)CCCC(=O)O [Example 21, 4-[N-[3-(Dibenz[b,e]oxepin-11(6H)-ylidene)propyl]-N-methylamino]butyric Acid] |  | 7.24e-06 | 3.47e-09 |  |
| CN(CCC=C1c2ccccc2COc2ccccc21)CCCCC(=O)O [Example 22, 5-[N-[3-(Dibenz[b,e]oxepin-11(6H)-ylidene)propyl]-N-methylamino]valeric Acid] | 62 | 1e-05 | 4.37e-09 |  |
| CN(CCC=C1c2ccccc2COc2ccccc21)CCCCCC(=O)O [Example 23, 6-[N-[3-(Dibenz[b,e]oxepin-11(6H)-ylidene)propyl]-N-methylamino]hexanoic Acid] |  | 3.16e-06 | 7.76e-09 |  |
| CN(C)CCC=C1c2ccccc2C=Cc2ccccc21 [cyclobenzaprine, Cyclobenzaprine, reference compound] | 14 | 7.59e-09 |  | sleepiness, dizziness, fatigue, thirst, nausea, constipation, and dyspepsia |
| CN(C)CCC=C1c2ccccc2COc2ccccc21 [doxepin, Doxepin, reference compound] | 21 | 5.89e-08 |  | sleepiness, thirst, and constipations |
